Measurements as given in patent US20110027354A1, “ANTI-PA[…]” (priority 2008, published 2011).

Tests used:
[1] = test system: mice; assay: Locomotor activity after repeated treatment with drug alone; type: in vivo; settings: repeated treatment i.p./day×7, selegiline or MPPE 2.5 or 5.0 mg/kg, MA 0.5 or 1.0 mg/kg
Protocol: Selegiline or […] was injected (2.5 or 5 mg/kg, i.p.) once a day for 7 consecutive days. Methamphetamine, a positive control, was also administered (0.5 or 1 mg/kg, i.p.) once a day for 7 days.
Locomotor activity measured for 30 min one day after the last MPTP administration using an automated video-tracking system (Noldus Information Technology, Wagenin, The Netherlands). Eight test boxes (40×40×30 cm high) were operated simultaneously by an IBM computer. Animals were studied individually during locomotion in each test box, where they were adapted for 5 min before starting the experiment. […] The distance traveled in cm by the animals in horizontal locomotor activity was analyzed. Data were collected and analyzed between 09:00 and 17:00 h (Kim et al., 2001).

[2] = test system: mice; assay: Conditioned place preference (CPP); type: in vivo; settings: selegiline or MPPE 2.5 or 5.0 mg/kg i.p., MA 0.5 or 1.0 mg/kg i.p.; vs. saline
Protocol: For conditioned place preference (CPP) test, mice received an i.p. injection of saline just before entering the […] compartment. MA (0.5 or 1.0 mg/kg, i.p.), selegiline (2.5 or 5.0 mg/kg, i.p.), and MPPE (2.5 or 5.0 mg/kg, i.p.) dissolved in saline was administered immediately before the mice were placed in the white compartment. On day 1, the mice were pre-exposed to the test apparatus for 15 minutes. The guillotine style doors were raised and mice were allowed to move freely between the two compartments. On day 2, the time each mouse spent in each compartment was recorded for 15 minutes. On days 3, 5, 7, 9, 11, and 13, the mice were injected with each drug before being confined to the white compartment, the non-preferred side, for 40 minutes. On day 14, the guillotine doors were raised. The mice were initially placed in the tunnel and the time spent by the mice in the two compartments was recorded for 15 minutes. The scores were calculated from the differences in the time spent in the white compartment in the testing and pre-testing phases. Data were analyzed between 09:00 and 17:00 hours.

Compound: CN[C@@H](C)Cc1ccccc1 [MA, methamphetamine]
- locomotor patterns [1]: typical circling locomotor patterns
- locomotor activities ([1]; vs. saline): significantly increased
- conditioned place preference (CPP) [2]: significantly increased compared with saline
